pIC50: −log10 of the molar value.
Tests used:
COX-2 = biological target: T1, COX-2 (Homo sapiens, UniProt P35354); experiment: COX-2 activity in human whole blood (PGE2, LPS-induced); assay type: cell-based; conditions: for pIC50: human whole blood, LPS 10 μg/ml 24 h at 37° C., PGE2 ELISA; for Ratio COX-1/COX-2: ratio of whole blood IC50 values
T1 construct: incubated in the presence of LPS (10 μg/ml) for 24 h at 37° C. in order to induce The COX-2 expression; endogenous in cells; host or cells: fresh heparinized human whole blood, COX-2 induced with LPS for 24 h
T1 sequence (P35354 18-604): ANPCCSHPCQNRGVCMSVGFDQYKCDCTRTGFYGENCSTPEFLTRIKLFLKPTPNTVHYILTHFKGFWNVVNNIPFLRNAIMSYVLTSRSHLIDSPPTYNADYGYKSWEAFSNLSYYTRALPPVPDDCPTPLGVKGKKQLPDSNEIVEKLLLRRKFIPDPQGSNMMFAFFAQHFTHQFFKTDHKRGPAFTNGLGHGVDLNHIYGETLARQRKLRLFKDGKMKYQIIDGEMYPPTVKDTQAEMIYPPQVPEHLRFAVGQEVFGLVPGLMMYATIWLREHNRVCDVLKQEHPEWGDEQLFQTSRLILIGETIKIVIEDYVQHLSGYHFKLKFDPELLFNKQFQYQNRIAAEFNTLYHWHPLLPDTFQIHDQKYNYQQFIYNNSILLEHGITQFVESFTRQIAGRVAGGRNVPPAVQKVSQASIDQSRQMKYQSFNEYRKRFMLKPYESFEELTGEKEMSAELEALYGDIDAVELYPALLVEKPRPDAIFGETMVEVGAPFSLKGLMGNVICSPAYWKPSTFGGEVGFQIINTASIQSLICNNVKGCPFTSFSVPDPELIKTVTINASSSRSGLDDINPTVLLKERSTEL
Description: Plasma was separated by centrifugation (10 min at 13000 rpm.) and kept at −30° C. until PGE2 levels were measured using an enzyme immunoassay kit (ELISA). The effects of inhibitors were studied by incubating each compound (5 μl aliquots) at five to six different concentrations with triplicate determinations in the presence of LPS for 24 hours. IC50 values were obtained by non-linear regression using InPlot, GraphPad software on an IBM computer.

COX-1 = biological target: T2, COX-1 (Homo sapiens, UniProt P23219); experiment: COX-1 activity in human whole blood (TXB2, calcium ionophore A23187); assay type: cell-based; conditions: 1 h at 37° C., TXB2 ELISA
T2 construct: Fresh blood from healthy volunteers; endogenous in cells; host or cells: fresh heparinized human whole blood stimulated with calcium ionophore A23187
T2 sequence (P23219 24-599): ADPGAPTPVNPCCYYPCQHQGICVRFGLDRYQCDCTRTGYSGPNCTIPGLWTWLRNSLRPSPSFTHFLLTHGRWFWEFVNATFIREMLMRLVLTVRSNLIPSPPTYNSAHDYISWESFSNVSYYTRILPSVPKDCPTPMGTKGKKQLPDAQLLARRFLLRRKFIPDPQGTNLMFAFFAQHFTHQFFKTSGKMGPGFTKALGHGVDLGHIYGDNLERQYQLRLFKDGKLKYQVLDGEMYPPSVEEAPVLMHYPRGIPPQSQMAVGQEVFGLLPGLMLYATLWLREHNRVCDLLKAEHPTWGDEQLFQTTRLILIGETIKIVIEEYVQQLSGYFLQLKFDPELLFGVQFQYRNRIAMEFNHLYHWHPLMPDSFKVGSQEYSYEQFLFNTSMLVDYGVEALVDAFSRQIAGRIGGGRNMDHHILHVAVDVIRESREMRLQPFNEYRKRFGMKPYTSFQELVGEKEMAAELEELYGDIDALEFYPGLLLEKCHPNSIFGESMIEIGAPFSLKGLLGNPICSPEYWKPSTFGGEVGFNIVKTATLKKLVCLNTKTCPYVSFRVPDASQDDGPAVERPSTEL
Description: For the COX-1 activity determination, 500 μl aliquots of blood were incubated with either 5 μl vehicle (dimethylsulphoxide) or 5 μl of a test compound for 1 h at 37° C. […] Plasma was separated by centrifugation (10 min at 13000 rpm) and kept at −30° C. until TXB2 levels were measured using an enzyme immunoassay kit (ELISA). The effect of the compounds were evaluated by incubating each compound at five to six different concentrations with triplicate determinations. IC50 values were obtained by non-linear regression using InPlot, GraphPad software on an IBM computer.

[1] = test system: intestinal ulcers and hematocrit in male Wistar rats; experiment: Ulcerogenic activity; assay type: in vivo, rat; set-up: key to Lesion index PU (perforated ulcers) / Lesion index NPU (non-perforated ulcers): 0:no ulcers; 1:<10 ulcers; 2:10-25 ulcers; 3:>25 ulcers; conditions: for Lesion index NPU (non-perforated ulcers) / Lesion index PU (perforated ulcers): index 0 to 3
Description: Animals: Male Wistar rate (Interfauna, U.K., Ltd.) weighing about 150-175 g were used. Animals were maintained on a 12:12 hour light-dark cycle (lights on at 7:00 am) at room temperature (22±1° C.). Food and water were allowed ad libitum.
Procedure: The compounds were administered by the oral route once a day for 4 consecutive days. The body weight of each rat was assessed every day before drug administration. The animals were anesthesized 24 h after the last dosing and 1 ml of blood was extracted by cardiac puncture using heparin (10 U/ml) as anticoagulant. The percentage of hematocrit was measured. The intestines were removed, opened longitudinally and gently washed. The macroscopic severity of the intestinal erosions was assessed using a parametric scale, evaluating the number of the perforated and non-perforated intestinal ulcers by means of a lesion index ranging from 0 to 3 (0:no ulcers, 1:<10 ulcers, 2:10-25 ulcers to 3:>25 ulcers). No gastric ulcers are observed using this protocol.
The treatments were randomized in each experiment. The results were compared with those obtained in the vehicle-treated group using the ANOVA test.

[2] = test system: adjuvant arthritis (hind paw volume) in male Wistar rats; experiment: Anti-inflammatory activity (adjuvant arthritis); assay type: in vivo, rat; conditions: dose 1 mg/kg p.o. once daily for 7 days (days 14-20), measured day 21
[3] = dose 100 mg/kg oral once a day for 4 days
[4] = dose 10 mg/kg oral once a day for 4 days

SMILES | pIC50 (COX-2) | Ratio COX-1/COX-2 (COX-2) | melting point [°C] | pIC50 (COX-1) | Hematocrit [1, 3] [%] | Lesion index NPU (non-perforated ulcers) [1, 3] | Lesion index PU (perforated ulcers) [1, 3] | % Inhibition of inflammation (paw volume) [2] | Hematocrit [1, 4] [%] | Lesion index NPU (non-perforated ulcers) [1, 4] | Lesion index PU (perforated ulcers) [1, 4]
Cc1cc(=O)c(Cc2ccccc2)c(-c2ccc(S(C)(=O)=O)cc2)o1 [Compound 37] | 5.97 | >92 | 137 | < 4.00 | – | – | – | – | – | – | –
Cc1cc(=O)c(-c2ccc(F)cc2F)c(-c2ccc(S(C)(=O)=O)cc2)o1 [Compound 15, 3-(2,4-difluorophenyl)-2-(4-methanesulfonylphenyl)-6-methylpyran-4-one] | 5.96 | 90 | 208 | – | – | – | – | – | – | – | –
Cc1ccc(Oc2c(-c3ccc(S(C)(=O)=O)cc3)oc(C)cc2=O)cc1 [Compound 44, 2-(4-methanesulfonylphenyl)-6-methyl-3-(4-methylphenoxy) pyran-4-one] | – | – | 183 | 4.41 | – | – | – | – | – | – | –
Cc1cc(=O)c(-c2ccc(Cl)cc2)c(-c2ccc(S(C)(=O)=O)cc2)o1 [Compound 5, 3-(4-chlorophenyl)-2-(4-methanesulfonylphenyl)-6-methylpyran-4-one] | 5.68 | >47 | 182 | < 4.00 | 44.1 ± 0.7 | 0 | 0 | 50 (1) % | – | – | –
Cc1cc(=O)c(Oc2ccc(Cl)cc2)c(-c2ccc(S(C)(=O)=O)cc2)o1 [Compound 41] | 6.46 | >285 | – | < 4.00 | 43.4 ± 1.9 | 0 | 0 | 71 (1) % | – | – | –
COCc1cc(=O)c(-c2ccc(Cl)cc2)c(-c2ccc(S(C)(=O)=O)cc2)o1 [Compound 63, 3-(4-chlorophenyl)-2-(4-methanesulfonylphenyl)-6-methoxymethylpyran-4-one] | 5.76 | 25 | – | 4.36 | – | – | – | – | – | – | –
Cc1cc(=O)c(-c2ccc(F)cc2)c(-c2ccc(S(C)(=O)=O)cc2)o1 [Compound 2, 3-(4-fluorophenyl)-2-(4-methanesulfonylphenyl)-6-methylpyran-4-one] | 5.97 | >94 | 237 | < 4.00 | – | – | – | – | – | – | –
Cc1cc(=O)c(-c2ccc(Cl)c(Cl)c2)c(-c2ccc(S(C)(=O)=O)cc2)o1 [Compound 22, 3-(3,4-dichlorophenyl)-2-(4-methanesulfonylphenyl)-6-methylpyran-4-one] | – | – | 156 | 4.43 | 44.4 ± 0.3 | – | – | 69 (1) % | – | – | –
Cc1cc(=O)c(Oc2ccccc2F)c(-c2ccc(S(C)(=O)=O)cc2)o1 [Compound 40, 3-(2-fluorophenoxy)-2-(methanesulfonylphenyl)-6-methylpyran-4-one] | 6.85 | 193 | – | 4.57 | – | – | – | – | – | – | –
Cc1cc(=O)c(Oc2ccc(Br)cc2)c(-c2ccc(S(C)(=O)=O)cc2)o1 [Compound 43, 3-(4-bromophenoxy)-2-(4-methanesulfonylphenyl)-6-methylpyran-4-one] | 6.10 | 125 | 188 | < 4.00 | – | – | – | – | – | – | –
Cc1cc(=O)c(-c2ccccc2F)c(-c2ccc(S(C)(=O)=O)cc2)o1 [Compound 4, 3-(2-fluorophenyl)-2-(4-methanesulfonylphenyl)-6-methylpyran-4-one] | 5.82 | >66 | 136 to 137 | < 4.00 | – | – | – | – | – | – | –
Cc1cc(=O)c(Oc2ccc(F)cc2F)c(-c2ccc(S(C)(=O)=O)cc2)o1 [Compound 45, 3-(2,4-difluorophenoxy)-2-(4-methanesulfonylphenyl)-6-methylpyran-4-one] | 6.82 | 147 | 191 | 4.66 | 44.4 ± 0.9 | 0 | 0 | 74 (1) % | – | – | –
Cc1cc(=O)c(Oc2ccc(F)cc2)c(-c2ccc(S(C)(=O)=O)cc2)o1 [Compound 39, 3-(4-fluorophenoxy)-2-(4-methanesulfonylphenyl)-6-methylpyran-4-one] | 6.02 | >104 | 189 | < 4.00 | 43.7 ± 0.4 | 0 | 0 | 75 (1) % | – | – | –
COc1ccc(-c2c(-c3ccc(S(C)(=O)=O)cc3)oc(C)cc2=O)cc1Cl [Compound 31] | 5.78 | >59 | 116 | < 4.00 | – | – | – | – | – | – | –
Cc1cc(=O)c(Oc2ccccc2Cl)c(-c2ccc(S(C)(=O)=O)cc2)o1 [Compound 42, 3-(2-chlorophenoxy)-2-(methanesulfonylphenyl)-6-methylpyran-4-one] | 6.70 | 205 | – | 4.39 | – | – | – | – | – | – | –
Cc1cc(=O)c(-c2ccc(Br)cc2)c(-c2ccc(S(C)(=O)=O)cc2)o1 [Compound 8, 3-(4-bromophenyl)-2-(4-methanesulfonylphenyl)-6-methylpyran-4-one] | 5.77 | >58 | 198 | < 4.00 | – | – | – | – | – | – | –
Cc1cc(=O)c(Oc2cc(F)ccc2F)c(-c2ccc(S(C)(=O)=O)cc2)o1 [Compound 47, 3-(2,5-difluorophenoxy)-2-(4-methanesulfonylphenyl)-6-methylpyran-4-one] | 6.10 | 71 | 189 | 4.24 | – | – | – | – | – | – | –
CS(=O)(=O)c1ccc(-c2oc(C(F)F)cc(=O)c2-c2ccc(Cl)cc2)cc1 [Compound 67, 3-(4-chlorophenyl)-6-difluoromethyl-2-(4-methanesulfonylphenyl)pyran-4-one] | 5.68 | >47 | 168 to 170 | < 4.00 | – | – | – | – | – | – | –
COc1ccc2c(c1)c(CC(=O)O)c(C)n2C(=O)c1ccc(Cl)cc1 [Indomethacin, 1-(4-chlorobenzoyl)-5-methoxy-2-methylindole-3-acetic acid, reference compound] | – | – | – | – | – | – | – | 64 (1) % | 22.7 ± 1.6 | 3 (3:>25 ulcers) | 3 (3:>25 ulcers)

From US6518303B2, “2-phenylpyran-4-one derivatives” (Almirall Prodesfarma S.A., priority 1999, dated 2003)
